Assay: gradient 5% acetonitrile 3 min, to 50% in 2 min, to 85% in 15 min, held 3 min, 100 µL/min
Conditions: column: Zorbax Extend-C18 2.1 x 50 mm; eluents: water / acetonitrile, 0.1% formic acid
Method in brief: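 Retention times of pure standards were taken from adduct peaks that were selected by computer and manually inspected. Over 3 months, mixtures of ~100 molecules were run by HPLC–quadrupole time-of-flight mass spectrometry in positive and negative ionization mode. The Zorbax Extend-C18 column (2.1 × 50 mm, 1.8 μm) ran at 100 μL/min in water and acetonitrile, each containing 0.1% formic acid, with 40 μL dead volume and 900 μL dwell volume.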

| SMILES | RP-LC retention time [s] |
| --- | --- |
| CN1C(=O)C2(CCN(C(=O)c3cccc(F)c3)C2)c2ccccc21 (centres undefined) | 765 |
| O=C(NCc1ccc(Br)cc1)C1CCN(C(=O)C2Sc3ccccc3NC2=O)CC1 (centres undefined) | 782 |
| Cc1oc2c(c1C(=O)Nc1cccc(C(F)(F)F)c1)C1=NCCN1C=N2 | 652 |
| CC1CCCN(C(=O)c2cc3c(s2)CCN(C(=O)c2ccc(Cl)cc2)C3)C1 (centres undefined) | 991 |
| CCOCC(=O)N1CCOc2ccc(N(C)C)cc2C1 | 566 |
| O=C(Nc1ccccc1Cl)NC1CCCN(c2cc(-c3ccncc3)[nH]n2)C1 (centres undefined) | 582 |
| CCCc1c(C(=O)OCC)cnc2nc(-c3ccccc3)nn12 | 1120 |
| CNC(=O)C1CCCN1C(=O)Nc1ccc(C)cc1 (centres undefined) | 640 |
| CCN1CCCn2cc(S(=O)(=O)N3CCN(c4ccccc4OC)CC3)cc2C1=O | 784 |
| COc1ccc(-c2ccc(CNc3ncn[nH]3)o2)cc1Cl | 673 |
| COc1ccc(-c2nc(-c3ccc4c(c3)ncn4CCC(=O)N3CCCC3)no2)cc1OC | 776 |
| CCn1cc(CCNC(=O)Cc2ccccc2C)c2cccnc21 | 721 |
| O=C(NCCn1cnc2cc(C(=O)N3CCCC3)ccc21)NCc1ccco1 | 985 |
| COc1ccc(-c2nc(CNC(=O)c3ccc(-c4noc(C(C)C)n4)cc3)no2)cc1 | 1000 |
| O=C(Cn1cccc1-c1nnc(C2CC2)o1)N1CCN(c2ccccc2F)CC1 | 872 |
| O=C(NC1CCCCCC1)c1ccc2ncnc(N3CCCC3)c2c1 | 675 |
| CCOc1ccc(NC(=O)C2CCCN2S(=O)(=O)c2ccc(OCC)cc2)cc1 (centres undefined) | 967 |
| CSc1ccc(-c2nc3cnccn3c2Nc2cccc(C(=O)NCC3CCCO3)c2)cc1 (centres undefined) | 748 |
| NS(=O)(=O)c1ccc(NC(=O)Cn2cnc(-c3ccccc3)cc2=O)cc1 | 638 |
| Cc1cccc(N2C=C(C(=O)N3CCOCC3)S(=O)(=O)c3ccc(F)cc32)c1 | 793 |
| CC1CCCN(S(=O)(=O)c2cc(C(=O)NCCC3=CCCCC3)n(C)c2)C1 (centres undefined) | 1140 |
| CCS(=O)(=O)c1nc2ccc(NS(=O)(=O)c3ccc(F)cc3Cl)cc2s1 | 890 |
| Cc1cccc(-c2ncccc2CNS(=O)(=O)c2ccccc2Br)c1 | 731 |

| SMILES | RP-LC retention time [s] |
| --- | --- |
| COc1cccc(-c2csc(Nc3cc(C)ccn3)n2)c1 | 810 |
| COc1cc(N2CCC(N3CCN(C)CC3)CC2)ccc1Nc1ncc(Cl)c(Nc2ccccc2S(=O)(=O)C(C)C)n1 | 694 |
| O=C(NCc1ccc(Cl)cc1)c1ccc(NC(=O)C2CC2)cc1N1CCOCC1 | 843 |
| Cc1ccc(S(=O)(=O)N2CCc3nn(CC(C)C)c(=O)n3CC2)cc1Cl | 880 |
| Cc1ccn(-c2ccc(C(=O)Nc3ccccc3)cn2)n1 | 885 |
| CCn1c(SCC(=O)N(C)C)nnc1-c1ccc2c(c1)OCCCO2 | 671 |
| COc1cc(C2=NN(C(C)=O)C(c3cccnc3)O2)cc(OC)c1OC(C)=O (centres undefined) | 728 |
| CCc1nc2ccccc2c(=O)n1Cc1noc(COc2ccc(OC)cc2)n1 | 921 |
| COc1ccc(Nc2c(-c3nc(C)no3)cnc3nc(C)ccc23)c(OC)c1 | 692 |
| Cc1ccc(S(=O)(=O)Nc2cc(-c3cn4ccccc4n3)ccc2C)cc1 | 668 |
| COC1C(=O)N(CC2CC2)C12CCN(C(=O)c1ccc(C)s1)CC2 (centres undefined) | 566 |
| CCS(=O)(=O)N1CCCc2cc(C(=O)N3CCCCCC3)ccc21 | 824 |
| O=C(CN1C(=O)C2CCCCN2c2ccc(S(=O)(=O)N3CCCC3)cc21)NCC1CCCO1 (centres undefined) | 771 |
| CCn1c(=O)sc2cc(S(=O)(=O)N3CCC(C(=O)Nc4ccc(C)cc4)CC3)ccc21 | 940 |
| Cc1cccc(CNC(=O)C2(C)Cn3cnc(C(=O)NCc4ccc(F)cc4)c3C(=O)N2C2CC2)c1 (centres undefined) | 798 |
| O=C(NCCN1CCCCC1)C1CCN(c2cnn(Cc3ccccc3)c(=O)c2)CC1 | 614 |
| Cc1noc(C)c1CC(=O)NCC12CCC=C1N(C)C(=O)CC2 (centres undefined) | 638 |
| COc1cc(OC)c(NC(=O)NC2(c3nc(C)no3)CCCCC2)cc1Cl | 858 |
| Cc1ccc(N2CC(c3nc(-c4ccc5c(c4)OCO5)no3)CC2=O)c(C)c1 (centres undefined) | 911 |
| CN1C(=O)c2cc(C(=O)NCc3ccccc3)nn2CC1(C)C(=O)NCc1ccccc1 (centres undefined) | 685 |
| Cc1cc(C)c(C)c(S(=O)(=O)N2CCn3c(nn(CC4CC4)c3=O)C2)c1C | 943 |
| O=C(c1cccc2[nH]ccc12)N1CCN(c2cc(-c3cccs3)[nH]n2)CC1 | 832 |
| CCN1C(=O)CCc2cc(NS(=O)(=O)Cc3ccccc3Cl)ccc21 | 803 |

| SMILES | RP-LC retention time [s] |
| --- | --- |
| Cc1ccccc1OCc1nc(CCN(C)C(=O)Cc2cccs2)no1 | 924 |
| COCCCNC(=O)Cn1c(=O)c2cccn2c2ccc(F)cc21 | 689 |
| O=C(c1cccc(F)c1)N1CCN(c2cnn3c(C4CC4)nnc3c2)CC1 | 648 |
| CC(c1ccccc1)N1CC(=O)N(c2ccc(Cl)cc2)[C@@H]2CS(=O)(=O)C[C@@H]21 (some centres undefined) | 853 |
| Cc1ccc(NC(=O)N2CCCN(c3ccc(=O)n(-c4ccccc4)n3)CC2)c(C)c1 | 763 |
| CCOC(=O)c1cc(S(=O)(=O)N2CCCC2C(=O)Nc2ccc(C)cc2Br)cn1C (centres undefined) | 1060 |
| O=C(c1cn2cc(Cl)ccc2n1)N1CCN(c2ccc(Cl)cc2)CC1 | 899 |
| CCCCC(=O)Nc1ccc2nc(N3CCN(CCC)CC3)cc(C(=O)O)c2c1 | 590 |
| O=C(NC1CC1)C1CCN(c2cnn(Cc3ccccc3)c(=O)c2)C1 (centres undefined) | 664 |
| Cc1nc(-c2cn(C(C)C)c3ncccc23)sc1C(=O)N1CCN(C(C)C)CC1 | 622 |
| CCn1c(=O)c(C(=O)NCc2ccc(OC)cc2)nc2cccnc21 | 720 |
| CC1(C)C(=O)NCCN1C(=O)c1cccc(C(F)(F)F)c1 | 662 |
| CCn1cc(CCNC(=O)Nc2cc(OC)cc(OC)c2)c2cccnc21 | 707 |
| O=C(CN1C(=O)C(C(=O)N2CCCC2)Sc2ccccc21)Nc1cccc(F)c1 (centres undefined) | 1020 |
| Cc1cc(Cl)ccc1NC(=O)N1CC(Cc2nc(-c3cnccn3)no2)C1 | 754 |
| CCCN1C(=O)Cc2cc(C(=O)NCc3ccc(SC)cc3)ccc21 | 829 |
| COC(=O)c1c(C)c(C(=O)C(C)N(Cc2ccc(F)cc2)C(=O)C(C)C)c(C)n1C (centres undefined) | 990 |
| CCOc1cccc(C2c3[nH]c4ccccc4c3CCN2C(=O)C2CC2)c1 (centres undefined) | 1100 |
| CCOc1ccc(-c2ccc(=O)n(Cc3nc(-c4ccc(C)c(C)c4)no3)n2)cc1 | 576 |
| Cc1noc(CN2CCN(C3CCN(Cc4cc(Cl)ccc4F)C3)C2=O)n1 (centres undefined) | 713 |
| CC(C)NC(=O)c1ccc(OCC2CCCN(C(=O)Cc3cccc(F)c3)C2)cc1 (centres undefined) | 955 |
| CCOC(=O)c1c(C)oc2nc(C)nc(N3CCc4cc(OC)c(OC)cc4C3C)c12 (centres undefined) | 1060 |
| Cc1cc(OCC(=O)Nc2ccc3c(c2)OCO3)nc(-c2ccc(F)cc2)n1 | 960 |

| SMILES | RP-LC retention time [s] |
| --- | --- |
| COc1ccc(CCNC(=O)N2CC3CC2C(=O)O3)cc1 (centres undefined) | 625 |
| Cc1sc(NC(=O)c2cccc(Cl)c2)nc1-c1ccc2c(c1)NC(=O)CO2 | 968 |
| Cc1ccccc1-c1noc(CN2N=NC3C(=O)N(c4ccc5c(c4)CCC5)C(=O)C32)n1 (centres undefined) | 1120 |
| CN(C)C1(CC2CC2)CCN(C(=O)c2ccsc2)CC1 | 578 |
| Cc1ccc(N2C=C(C(=O)N3CCOCC3)S(=O)(=O)c3ccc(F)cc32)cc1C | 887 |
| CCNc1nc(C)cc(N2CCN(S(=O)(=O)c3ccc(-c4csc(C)n4)s3)CC2)n1 | 733 |
| Cc1noc(C)c1CCNC(=O)c1cc2c(-c3cccs3)nn(-c3ccccc3)c2n1C | 1000 |
| CCn1nc2c(S(=O)(=O)N3CCN(c4ccc(F)cc4)CC3)cccn2c1=O | 1250 |
| O=C(Cc1csc(SCC(=O)c2cccs2)n1)Nc1ccc(F)c(Cl)c1 | 923 |
| COc1ccc(S(=O)(=O)N2CCCC(C(=O)NCCO)C2)cc1C (centres undefined) | 669 |
| CCC(C)C(NC(=O)c1ccccc1)C(=O)Nc1nc2ccccc2[nH]1 (centres undefined) | 718 |
| COc1ccccc1N1C(=O)C2ON(c3ccccc3)C(c3cccc([N+](=O)[O-])c3)C2C1=O (centres undefined) | 615 |
| COc1ccc(NC(=O)CN2C(=O)C(C)(C)c3ccccc32)cc1 | 826 |
| CCN1CCN(CC2CCN(S(=O)(=O)c3ccc4c(c3)CCC4)CC2)CC1 | 624 |
| Cc1noc(C)c1S(=O)(=O)N1CCC2(CC1)CC(CCOc1ccc(F)cc1)CCO2 (centres undefined) | 1220 |
| O=C(NCCn1ncccc1=O)c1ccc(N2CCCC2)nn1 | 522 |
| Cc1cccc(Cn2ccnc2C(N)=O)c1 | 801 |
| CS(=O)(=O)N1CCC(C(=O)NCC2CCN(C(=O)Oc3ccccc3)CC2)CC1 | 663 |
| CCNC(=O)C1CCN(c2nc3ccc(-c4ccc(F)cc4)nc3s2)CC1 | 861 |
| COCCN1C(=O)CCc2cc(NS(=O)(=O)c3ccc(C)c(F)c3)ccc21 | 802 |

Reference: the METLIN SMRT retention time set (Domingo-Almenara et al. 2019)
